“And” between values parts separate entries of the source, which are not always exact repeats. Equal entries are not always repeated. Where two headings read alike, the source gives them in different places.
Tests used:
[1] = test system: DiMT protein; format: biochemical, Dirofilaria immitis; details: for IC50: read-out: IC 50 (μM ± SEM)
[2] = test system: D. immitis microfilariae; experiment: In vitro efficacy against live D. immitis microfilariae (motility, completely immotile %); format: cell-based, Dirofilaria immitis; details: for Completely Immotile Microfilariae (%): single replicate; for effect on microfilariae: up to 120 h of culture

O=c1c(O)cccc2cc(O)c(O)c(O)c12 [NSC35676]
Mean Percent Inhibition (single experiments) ([1]; 15 µM): 41.9 and 44.3 and 44.1 | Mean Percent Inhibition, Average ([1]; 15 µM): 43.4 | Mean Percent Inhibition (single experiments) ([1]; 25 µM): 45.9 and 51.6 and 47.0 | Mean Percent Inhibition, Average ([1]; 25 µM): 48.2 | Mean Percent Inhibition (single experiments) ([1]; 50 µM): 62.0 and 58.4 and 60.6 | Mean Percent Inhibition, Average ([1]; 50 µM): 60.4 | Mean Percent Inhibition (single experiments) ([1]; 75 µM): 63.8 and 67.9 and 65.4 | Mean Percent Inhibition, Average ([1]; 75 µM): 65.7 | Mean Percent Inhibition (single experiments) ([1]; 100 µM): 68.1 and 72.1 and 71.2 | Mean Percent Inhibition, Average ([1]; 100 µM): 70.5 | IC50 [1]: 25.2 ± 1.4 µM | Mean completely Immotile (%) ([2]; 25 µM, 0 h): 0% | Completely Immotile Microfilariae (%) ([2]; 25 µM, 0 h): 0% | Mean completely Immotile (%) ([2]; 25 µM, 24 h): 1% | Completely Immotile Microfilariae (%) ([2]; 25 µM, 24 h): 0% and 1% and 2% | Mean completely Immotile (%) ([2]; 25 µM, 48 h): 3% | Completely Immotile Microfilariae (%) ([2]; 25 µM, 48 h): 2% and 3% and 4% | Mean completely Immotile (%) ([2]; 25 µM, 72 h): 4.33% | Completely Immotile Microfilariae (%) ([2]; 25 µM, 72 h): 4% and 3% and 6% | Mean completely Immotile (%) ([2]; 25 µM, 96 h): 5.67% | Completely Immotile Microfilariae (%) ([2]; 25 µM, 96 h): 5% and 4% and 8% | Mean completely Immotile (%) ([2]; 25 µM, 120 h): 9.33% | Completely Immotile Microfilariae (%) ([2]; 25 µM, 120 h): 7% and 6% and 15% | Mean completely Immotile (%) ([2]; 75 µM, 0 h): 0% | Completely Immotile Microfilariae (%) ([2]; 75 µM, 0 h): 0% | Mean completely Immotile (%) ([2]; 75 µM, 24 h): 2.33% | Completely Immotile Microfilariae (%) ([2]; 75 µM, 24 h): 1% (2×) and 5% | Mean completely Immotile (%) ([2]; 75 µM, 48 h): 4.33% | Completely Immotile Microfilariae (%) ([2]; 75 µM, 48 h): 4% and 3% and 6% | Mean completely Immotile (%) ([2]; 75 µM, 72 h): 9% | Completely Immotile Microfilariae (%) ([2]; 75 µM, 72 h): 10% and 8% and 9% | Mean completely Immotile (%) ([2]; 75 µM, 96 h): 12% | Completely Immotile Microfilariae (%) ([2]; 75 µM, 96 h): 12% and 11% and 13% | Mean completely Immotile (%) ([2]; 75 µM, 120 h): 15.67% | Completely Immotile Microfilariae (%) ([2]; 75 µM, 120 h): 15% and 13% and 19% | Mean completely Immotile (%) ([2]; 125 µM, 0 h): 0% | Completely Immotile Microfilariae (%) ([2]; 125 µM, 0 h): 0% | Mean completely Immotile (%) ([2]; 125 µM, 24 h): 4.33% | Completely Immotile Microfilariae (%) ([2]; 125 µM, 24 h): 3% and 4% and 6% | Mean completely Immotile (%) ([2]; 125 µM, 48 h): 6% | Completely Immotile Microfilariae (%) ([2]; 125 µM, 48 h): 5% and 4% and 9% | Mean completely Immotile (%) ([2]; 125 µM, 72 h): 12.33% | Completely Immotile Microfilariae (%) ([2]; 125 µM, 72 h): 12% and 10% and 15% | Mean completely Immotile (%) ([2]; 125 µM, 96 h): 20.33% | Completely Immotile Microfilariae (%) ([2]; 125 µM, 96 h): 16% and 15% and 30% | Mean completely Immotile (%) ([2]; 125 µM, 120 h): 18.67% | Completely Immotile Microfilariae (%) ([2]; 125 µM, 120 h): 19% and 15% and 22% | Mean completely Immotile (%) ([2]; 200 µM, 0 h): 0% | Completely Immotile Microfilariae (%) ([2]; 200 µM, 0 h): 0% | Mean completely Immotile (%) ([2]; 200 µM, 24 h): 5% | Completely Immotile Microfilariae (%) ([2]; 200 µM, 24 h): 5% and 4% and 6% | Mean completely Immotile (%) ([2]; 200 µM, 48 h): 7.33% | Completely Immotile Microfilariae (%) ([2]; 200 µM, 48 h): 5% and 6% and 11% | Mean completely Immotile (%) ([2]; 200 µM, 72 h): 13.33% | Completely Immotile Microfilariae (%) ([2]; 200 µM, 72 h): 15% and 13% and 12% | Mean completely Immotile (%) ([2]; 200 µM, 96 h): 18.67% | Completely Immotile Microfilariae (%) ([2]; 200 µM, 96 h): 20% and 19% and 17% | Mean completely Immotile (%) ([2]; 200 µM, 120 h): 23% | Completely Immotile Microfilariae (%) ([2]; 200 µM, 120 h): 23% and 22% and 24% | effect on microfilariae [2]: insignificant effect

COc1ccc(-c2c(C)c(C(=O)O)nc(-c3ccc4c(O)c(OC)c5c(c4n3)=NC(C)(C)N=5)c2N)c(O)c1OC [NSC62709]
Mean Percent Inhibition ([1]; 40 µM): 32.1% and 22.9% and 27.7% | Mean Percent Inhibition, Average ([1]; 40 µM): 27.6% | Mean Percent Inhibition ([1]; 80 µM): 63.8% and 49.7% and 46.2% | Mean Percent Inhibition, Average ([1]; 80 µM): 53.2% | Mean Percent Inhibition ([1]; 120 µM): 65.7% and 71.6% and 62.3% | Mean Percent Inhibition, Average ([1]; 120 µM): 66.5% | Mean Percent Inhibition ([1]; 140 µM): 72.8% and 64.4% and 72.4% | Mean Percent Inhibition, Average ([1]; 140 µM): 69.9% | Mean Percent Inhibition ([1]; 180 µM): 81.5% and 69.4% and 74.5% | Mean Percent Inhibition, Average ([1]; 180 µM): 75.1% | IC50 [1]: 76.2 ± 1.7 µM | Mean completely Immotile (%) ([2]; 50 µM, 0 h): 0% | Completely Immotile Microfilariae (%) ([2]; 50 µM, 0 h): 0% | Mean completely Immotile (%) ([2]; 50 µM, 24 h): 1.67% | Completely Immotile Microfilariae (%) ([2]; 50 µM, 24 h): 1% and 2% (2×) | Mean completely Immotile (%) ([2]; 50 µM, 48 h): 3.33% | Completely Immotile Microfilariae (%) ([2]; 50 µM, 48 h): 3% (2×) and 4% | Mean completely Immotile (%) ([2]; 50 µM, 72 h): 5.67% | Completely Immotile Microfilariae (%) ([2]; 50 µM, 72 h): 5% (2×) and 7% | Mean completely Immotile (%) ([2]; 50 µM, 96 h): 7.33% | Completely Immotile Microfilariae (%) ([2]; 50 µM, 96 h): 7% and 9% and 6% | Mean completely Immotile (%) ([2]; 50 µM, 120 h): 14% | Completely Immotile Microfilariae (%) ([2]; 50 µM, 120 h): 12% and 14% and 16% | Mean completely Immotile (%) ([2]; 100 µM, 0 h): 0% | Completely Immotile Microfilariae (%) ([2]; 100 µM, 0 h): 0% | Mean completely Immotile (%) ([2]; 100 µM, 24 h): 3.67% | Completely Immotile Microfilariae (%) ([2]; 100 µM, 24 h): 3% (2×) and 5% | Mean completely Immotile (%) ([2]; 100 µM, 48 h): 7% | Completely Immotile Microfilariae (%) ([2]; 100 µM, 48 h): 7% and 6% and 8% | Mean completely Immotile (%) ([2]; 100 µM, 72 h): 9.33% | Completely Immotile Microfilariae (%) ([2]; 100 µM, 72 h): 9% (2×) and 10% | Mean completely Immotile (%) ([2]; 100 µM, 96 h): 12.33% | Completely Immotile Microfilariae (%) ([2]; 100 µM, 96 h): 10% and 12% and 15% | Mean completely Immotile (%) ([2]; 100 µM, 120 h): 17% | Completely Immotile Microfilariae (%) ([2]; 100 µM, 120 h): 15% and 17% and 19% | Mean completely Immotile (%) ([2]; 150 µM, 0 h): 0% | Completely Immotile Microfilariae (%) ([2]; 150 µM, 0 h): 0% | Mean completely Immotile (%) ([2]; 150 µM, 24 h): 4.67% | Completely Immotile Microfilariae (%) ([2]; 150 µM, 24 h): 5% (2×) and 4% | Mean completely Immotile (%) ([2]; 150 µM, 48 h): 8.67% | Completely Immotile Microfilariae (%) ([2]; 150 µM, 48 h): 9% and 6% and 11% | Mean completely Immotile (%) ([2]; 150 µM, 72 h): 12.33% | Completely Immotile Microfilariae (%) ([2]; 150 µM, 72 h): 12% and 11% and 14% | Mean completely Immotile (%) ([2]; 150 µM, 96 h): 14.67% | Completely Immotile Microfilariae (%) ([2]; 150 µM, 96 h): 13% and 14% and 17% | Mean completely Immotile (%) ([2]; 150 µM, 120 h): 21.33% | Completely Immotile Microfilariae (%) ([2]; 150 µM, 120 h): 20% and 21% and 23% | Mean completely Immotile (%) ([2]; 200 µM, 0 h): 0% | Completely Immotile Microfilariae (%) ([2]; 200 µM, 0 h): 0% | Mean completely Immotile (%) ([2]; 200 µM, 24 h): 6.67% | Completely Immotile Microfilariae (%) ([2]; 200 µM, 24 h): 7% (2×) and 6% | Mean completely Immotile (%) ([2]; 200 µM, 48 h): 10.67% | Completely Immotile Microfilariae (%) ([2]; 200 µM, 48 h): 12% and 9% and 11% | Mean completely Immotile (%) ([2]; 200 µM, 72 h): 14.33% | Completely Immotile Microfilariae (%) ([2]; 200 µM, 72 h): 16% (2×) and 11% | Mean completely Immotile (%) ([2]; 200 µM, 96 h): 18.67% | Completely Immotile Microfilariae (%) ([2]; 200 µM, 96 h): 19% and 17% and 20% | Mean completely Immotile (%) ([2]; 200 µM, 120 h): 25.33% | Completely Immotile Microfilariae (%) ([2]; 200 µM, 120 h): 24% and 26% (2×) | effect on microfilariae [2]: insignificant effect

COc1cc(C)c2c(c1C=O)Oc1c(c(C)c(O)c3c1C(O)OC3=O)OC2=O (centres unmarked) [NSC87511]
IC50 [1]: 155 ± 2.2 µM | effect on microfilariae [2]: insignificant effect

CO[C@@H]1[C@@H](OC(=O)c2ccc(C)[nH]2)[C@@H](O)[C@H](Oc2ccc3c(O)c(NC(=O)c4ccc(O)c(CC=C(C)C)c4)c(=O)oc3c2Cl)OC1(C)C [NSC227186]
Mean Percent Inhibition ([1]; 10 µM): 25.0% and 23.9% and 30.2% | Mean Percent Inhibition, Average ([1]; 10 µM): 26.4% | Mean Percent Inhibition ([1]; 40 µM): 40.1% and 37.1% and 38.3% | Mean Percent Inhibition, Average ([1]; 40 µM): 38.5% | Mean Percent Inhibition ([1]; 70 µM): 40.5% and 43.1% and 39.6% | Mean Percent Inhibition, Average ([1]; 70 µM): 41.1% | Mean Percent Inhibition ([1]; 100 µM): 44.8% and 43.5% and 45.8% | Mean Percent Inhibition, Average ([1]; 100 µM): 44.7% | Mean Percent Inhibition ([1]; 130 µM): 46.6% and 49.3% and 48.1% | Mean Percent Inhibition, Average ([1]; 130 µM): 48.0% | Mean Percent Inhibition ([1]; 160 µM): 50.6% and 48.4% and 57.2% | Mean Percent Inhibition, Average ([1]; 160 µM): 52.0%

— PMC11392244, “Characterization of a unique catechol-O-methyltransferase as a molecular drug target in parasitic filarial nematodes” (PLOS Neglected Tropical Diseases, 2024)
